Measured values reported in article PMC8026479 (Cancer Chemotherapy and Pharmacology, 2021).
Like-named read-outs stand apart in the source and are kept apart here.

Key:
[1] = Study G1T28-1-01 plasma PK, first-in-human single dose; type: in vivo; details: for Vd: read-out: Vz
[2] = system: chemotherapy-induced myelosuppression in ES-SCLC patients; experiment: Study G1T28-03 Part 1 DLTs and myelosuppression endpoints (with topotecan); type: in vivo, human
Text: G1T28-03 (NCT02514447) was a multicentre Phase Ib/IIa study in patients with previously treated ES-SCLC [14]. Patients were aged ≥ 18 years and had histologically or cytologically confirmed ES-SCLC that had progressed during or after prior first- or second-line chemotherapy, measurable disease per RECIST version 1.1, an ECOG performance status of 0–2, and adequate organ function. Part 1 was a Phase Ib, open-label, dose-finding portion. Part 2 was a Phase IIa, randomized, double-blind, placebo-controlled portion. […] In Part 1 of the study, blood samples for PK analysis were collected at prespecified time points on Cycle 1 Day 1 and Cycle 1 Day 4 for all patients.

[3] = both sexes, human, plasma, iv, 6 mg/m2, healthy volunteers, single 30-min IV 6 mg/m2 (n = 3), mean
[4] = both sexes, human, plasma, iv, 12 mg/m2, healthy volunteers, single 30-min IV 12 mg/m2 (n = 3), mean
[5] = both sexes, human, plasma, iv, 24 mg/m2, healthy volunteers, single 30-min IV 24 mg/m2 (n = 3), mean
[6] = both sexes, human, plasma, iv, 49 mg/m2, healthy volunteers, single 30-min IV 49 mg/m2 (n = 3), mean
[7] = both sexes, human, plasma, iv, 96 mg/m2, healthy volunteers, single 30-min IV 96 mg/m2 (n = 6), mean
[8] = both sexes, human, plasma, healthy volunteers, single 30-min IV 6 mg/m2 (n = 3), mean
[9] = both sexes, human, plasma, healthy volunteers, single 30-min IV 96 mg/m2 (n = 6), mean
[10] = both, human, plasma, intravenous, […]2, healthy volunteers, BED cohort […]2 (n = 12), mean
[11] = both, human, plasma, intravenous, […]2, healthy volunteers, both […]2 cohorts (n = 18), mean
[12] = both, human, plasma, iv, […]2, healthy volunteers, single 30-min IV […]2 SAD cohort (n = 6), mean
[13] = healthy volunteers, single 30-min IV 6 mg/m2 (n = 3), mean
[14] = healthy volunteers, single 30-min IV 96 mg/m2 (n = 6), mean
[15] = G1T28-03 Part 1, 200 mg/m2 + topotecan 0.75 mg/m2 (n = 4)
[16] = G1T28-03 Part 1, 200 mg/m2 + topotecan 1.25 mg/m2 (n = 3)
[17] = G1T28-03 Part 1, 200 mg/m2 + topotecan […]2 (n = 2)
[18] = G1T28-03 Part 1, 240 mg/m2 + topotecan 0.75 mg/m2 (n = 8)
[19] = G1T28-03 Part 1, 240 mg/m2 + topotecan 1.00 mg/m2 (n = 8)
[20] = G1T28-03 Part 1, 280 mg/m2 + topotecan 0.75 mg/m2 (n = 7)
[21] = G1T28-03 Part 1, total (n = 32)

CN1CCN(c2ccc(Nc3ncc4cc5n(c4n3)C3(CCCCC3)CNC5=O)nc2)CC1 [trilaciclib]
clearance [1, 3]: 3130 mL/min
Vd [1, 3]: 1460 L
clearance [1, 4]: 2700 mL/min
Vd [1, 4]: 1770 L
clearance [1, 5]: 2930 mL/min
Vd [1, 5]: 2310 L
clearance [1, 6]: 2930 mL/min
Vd [1, 6]: 3430 L
clearance [1, 7]: 2370 mL/min
Vd [1, 7]: 3050 L
Tmax [1, 8]: 15 min
half-life [1, 8]: 319 min
half-life ([1]; both sexes, human, plasma, healthy volunteers, single 30-min IV 12 mg/m2 (n = 3), mean): 457 min
AUC(0-inf) ([1]; both sexes, human, plasma, healthy volunteers, single 30-min IV 12 mg/m2 (n = 3), mean, read-out: AUC0-inf): 143 ng·h/mL
half-life ([1]; both sexes, human, plasma, healthy volunteers, single 30-min IV 24 mg/m2 (n = 3), mean): 557 min
AUC(0-inf) ([1]; both sexes, human, plasma, healthy volunteers, single 30-min IV 24 mg/m2 (n = 3), mean, read-out: AUC0-inf): 279 ng·h/mL
Cmax ([1]; both sexes, human, plasma, healthy volunteers, single 30-min IV 24 mg/m2 (n = 3), mean, read-out: Cmax): 255 ng/mL
half-life ([1]; both sexes, human, plasma, healthy volunteers, single 30-min IV 49 mg/m2 (n = 3), mean): 774 min
Tmax [1, 9]: 22.2 min
half-life [1, 9]: 882 min
Tmax ([1]; both, human, plasma, intravenous, […]2): 28.2 min
clearance [1, 10]: 2100 mL/min
Vd [1, 10]: 2640 L
clearance [1, 11]: 2050 mL/min
Vd [1, 11]: 2580 L
half-life ([1]; both, human, plasma, iv, […]2): 870 min
clearance [1, 12]: 1950 mL/min
Vd [1, 12]: 2460 L
AUC(0-inf) [1, 13]: 66.6 ng·h/mL
Cmax [1, 13]: 50.4 ng/mL
Cmax ([1]; healthy volunteers, single 30-min IV 12 mg/m2 (n = 3), mean): 119 ng/mL
AUC(0-inf) ([1]; healthy volunteers, single 30-min IV 49 mg/m2 (n = 3), mean): 518 ng·h/mL
AUC(0-inf) [1, 14]: 1341 ng·h/mL
Cmax [1, 14]: 910 ng/mL
patients reporting DLTs ([2]; G1T28-03 Part 1, 200 mg/m2 + topotecan 0.75 mg/m2): 2 of 4
DSN in Cycle 1, mean (SD) [2, 15]: 0 (0.0) days
MAHE, event rate [2, 15]: 0.102 per week
Mean ANC Nadir in Cycle 1 [2, 15]: 0.98 (0.330) ×109/L
Occurrence of ESA administrations [2, 15]: 0 n (%)
Occurrence of FN [2, 15]: 0 n (%)
Occurrence of G-CSF administration [2, 15]: 1 (25.0) n (%)
Occurrence of Grade 3 or 4 decreased hemoglobin laboratory values [2, 15]: 2 (50.0) n (%)
Occurrence of Grade 3 or 4 decreased platelet count values [2, 15]: 2 (50.0) n (%)
Occurrence of Grade 3 or 4 hematologic laboratory abnormalities [2, 15]: 4 (100.0) n (%)
Occurrence of IV antibiotic use [2, 15]: 1 (25.0) n (%)
Occurrence of RBC transfusions on/after Week 5 [2, 15]: 2 (50.0) n (%)
Occurrence of SN [2, 15]: 1 (25.0) n (%)
Occurrence of infection SAEs [2, 15]: 1 (25.0) n (%)
Occurrence of platelet transfusions [2, 15]: 0 n (%)
Occurrence of pulmonary infection SAEs [2, 15]: 1 (25.0) n (%)
DSN in Cycle 1, mean (SD) [2, 16]: 8 (6.8) days
MAHE, event rate [2, 16]: 0.156 per week
Mean ANC Nadir in Cycle 1 [2, 16]: 0.47 (0.551) ×109/L
Occurrence of ESA administrations [2, 16]: 1 (33.3) n (%)
Occurrence of FN [2, 16]: 0 n (%)
Occurrence of G-CSF administration [2, 16]: 2 (66.7) n (%)
Occurrence of Grade 3 or 4 decreased hemoglobin laboratory values [2, 16]: 1 (33.3) n (%)
Occurrence of Grade 3 or 4 decreased platelet count values [2, 16]: 1 (33.3) n (%)
Occurrence of Grade 3 or 4 hematologic laboratory abnormalities [2, 16]: 3 (100.0) n (%)
Occurrence of IV antibiotic use [2, 16]: 1 (33.3) n (%)
Occurrence of RBC transfusions on/after Week 5 [2, 16]: 1 (33.3) n (%)
Occurrence of SN [2, 16]: 2 (66.7) n (%)
Occurrence of infection SAEs [2, 16]: 1 (33.3) n (%)
Occurrence of platelet transfusions [2, 16]: 1 (33.3) n (%)
Occurrence of pulmonary infection SAEs [2, 16]: 1 (33.3) n (%)
DSN in Cycle 1, mean (SD) [2, 17]: 14 (1.4) days
MAHE, event rate [2, 17]: 0.403 per week
Mean ANC Nadir in Cycle 1 [2, 17]: 0.20 (0.000) ×109/L
Occurrence of ESA administrations [2, 17]: 2 (100) n (%)
Occurrence of FN [2, 17]: 0 n (%)
Occurrence of G-CSF administration [2, 17]: 2 (100) n (%)
Occurrence of Grade 3 or 4 decreased hemoglobin laboratory values [2, 17]: 2 (100) n (%)
Occurrence of Grade 3 or 4 decreased platelet count values [2, 17]: 2 (100) n (%)
Occurrence of Grade 3 or 4 hematologic laboratory abnormalities [2, 17]: 2 (100.0) n (%)
Occurrence of IV antibiotic use [2, 17]: 2 (100) n (%)
Occurrence of RBC transfusions on/after Week 5 [2, 17]: 2 (100) n (%)
Occurrence of SN [2, 17]: 2 (100) n (%)
Occurrence of infection SAEs [2, 17]: 2 (100) n (%)
Occurrence of platelet transfusions [2, 17]: 0 n (%)
Occurrence of pulmonary infection SAEs [2, 17]: 1 (50.0) n (%)
DSN in Cycle 1, mean (SD) [2, 18]: 0 (0.0) days
MAHE, event rate [2, 18]: 0.037 per week
Mean ANC Nadir in Cycle 1 [2, 18]: 1.31 (0.650) ×109/L
Occurrence of ESA administrations [2, 18]: 1 (12.5) n (%)
Occurrence of FN [2, 18]: 0 n (%)
Occurrence of G-CSF administration [2, 18]: 4 (50.0) n (%)
Occurrence of Grade 3 or 4 decreased hemoglobin laboratory values [2, 18]: 3 (37.5) n (%)
Occurrence of Grade 3 or 4 decreased platelet count values [2, 18]: 0 n (%)
Occurrence of Grade 3 or 4 hematologic laboratory abnormalities [2, 18]: 7 (87.5) n (%)
Occurrence of IV antibiotic use [2, 18]: 1 (12.5) n (%)
Occurrence of RBC transfusions on/after Week 5 [2, 18]: 1 (12.5) n (%)
Occurrence of SN [2, 18]: 0 n (%)
Occurrence of infection SAEs [2, 18]: 0 n (%)
Occurrence of platelet transfusions [2, 18]: 0 n (%)
Occurrence of pulmonary infection SAEs [2, 18]: 0 n (%)
DSN in Cycle 1, mean (SD) [2, 19]: 3 (5.5) days
MAHE, event rate [2, 19]: 0.073 per week
Mean ANC Nadir in Cycle 1 [2, 19]: 0.63 (0.341) ×109/L
Occurrence of ESA administrations [2, 19]: 1 (12.5) n (%)
Occurrence of FN [2, 19]: 0 n (%)
Occurrence of G-CSF administration [2, 19]: 3 (37.5) n (%)
Occurrence of Grade 3 or 4 decreased hemoglobin laboratory values [2, 19]: 3 (37.5) n (%)
Occurrence of Grade 3 or 4 decreased platelet count values [2, 19]: 1 (12.5) n (%)
Occurrence of Grade 3 or 4 hematologic laboratory abnormalities [2, 19]: 7 (87.5) n (%)
Occurrence of IV antibiotic use [2, 19]: 1 (12.5) n (%)
Occurrence of RBC transfusions on/after Week 5 [2, 19]: 2 (25.0) n (%)
Occurrence of SN [2, 19]: 3 (37.5) n (%)
Occurrence of infection SAEs [2, 19]: 1 (12.5) n (%)
Occurrence of platelet transfusions [2, 19]: 0 n (%)
Occurrence of pulmonary infection SAEs [2, 19]: 1 (12.5) n (%)
patients reporting DLTs ([2]; G1T28-03 Part 1, 280 mg/m2 + topotecan 0.75 mg/m2): 2 of 7
DSN in Cycle 1, mean (SD) [2, 20]: 2 (3.6) days
MAHE, event rate [2, 20]: 0.085 per week
Mean ANC Nadir in Cycle 1 [2, 20]: 0.86 (0.594) ×109/L
Occurrence of ESA administrations [2, 20]: 0 n (%)
Occurrence of FN [2, 20]: 1 (14.3) n (%)
Occurrence of G-CSF administration [2, 20]: 2 (28.6) n (%)
Occurrence of Grade 3 or 4 decreased hemoglobin laboratory values [2, 20]: 1 (14.3) n (%)
Occurrence of Grade 3 or 4 decreased platelet count values [2, 20]: 2 (28.6) n (%)
Occurrence of Grade 3 or 4 hematologic laboratory abnormalities [2, 20]: 7 (100.0) n (%)
Occurrence of IV antibiotic use [2, 20]: 2 (28.6) n (%)
Occurrence of RBC transfusions on/after Week 5 [2, 20]: 1 (14.3) n (%)
Occurrence of SN [2, 20]: 2 (28.6) n (%)
Occurrence of infection SAEs [2, 20]: 0 n (%)
Occurrence of platelet transfusions [2, 20]: 1 (14.3) n (%)
Occurrence of pulmonary infection SAEs [2, 20]: 0 n (%)
DSN in Cycle 1, mean (SD) [2, 21]: 3 (5.1) days
MAHE, event rate [2, 21]: 0.107 per week
Occurrence of ESA administrations [2, 21]: 5 (15.6) n (%)
Occurrence of FN [2, 21]: 1 (3.1) n (%)
Occurrence of G-CSF administration [2, 21]: 14 (43.8) n (%)
Occurrence of Grade 3 or 4 decreased hemoglobin laboratory values [2, 21]: 12 (37.5) n (%)
Occurrence of Grade 3 or 4 decreased platelet count values [2, 21]: 8 (25.0) n (%)
Occurrence of Grade 3 or 4 hematologic laboratory abnormalities [2, 21]: 30 (93.8) n (%)
Occurrence of IV antibiotic use [2, 21]: 8 (25.0) n (%)
Occurrence of RBC transfusions on/after Week 5 [2, 21]: 9 (28.1) n (%)
Occurrence of SN [2, 21]: 10 (31.3) n (%)
Occurrence of infection SAEs [2, 21]: 5 (15.6) n (%)
Occurrence of platelet transfusions [2, 21]: 2 (6.3) n (%)
Occurrence of pulmonary infection SAEs [2, 21]: 4 (12.5) n (%)
